What follows are compounds tested against OGG1 (Homo sapiens (Human), UniProt O15527) (assay: In vitro OGG1 activity assay). Conditions: 800 pM OGG1 enzyme, 2 nM human APEX1, 10 nM 8-oxoA:C substrate.
Assay type: biochemical
Experimental: Method 1: In Vitro OGG1 Activity Assay OGG1 activity is assayed by measuring the increase in fluorescence from a duplex oligonucleotide containing an OGG1 substrate and a fluorophore in close proximity that are quenched by a quencher on the complementary strand. […] OGG1 activity releases the substrate base from DNA by cleaving the N-glycosidic bond between base and deoxyribose. The resulting apurinic site is cleaved by an excessive amount APEX1 activity which cause the duplex to melt, which in turn cause the fluorophore to become unquenched. Compounds to be tested are dissolved in DMSO and nano-dispensed directly into black 384-well plates, followed by transfer of enzyme and substrate solutions. […] The fluorescent signal is recorded in a plate reader equipped with suitable filters to register fluorescein fluorescence.

OGG1, sequence (O15527 whole entry): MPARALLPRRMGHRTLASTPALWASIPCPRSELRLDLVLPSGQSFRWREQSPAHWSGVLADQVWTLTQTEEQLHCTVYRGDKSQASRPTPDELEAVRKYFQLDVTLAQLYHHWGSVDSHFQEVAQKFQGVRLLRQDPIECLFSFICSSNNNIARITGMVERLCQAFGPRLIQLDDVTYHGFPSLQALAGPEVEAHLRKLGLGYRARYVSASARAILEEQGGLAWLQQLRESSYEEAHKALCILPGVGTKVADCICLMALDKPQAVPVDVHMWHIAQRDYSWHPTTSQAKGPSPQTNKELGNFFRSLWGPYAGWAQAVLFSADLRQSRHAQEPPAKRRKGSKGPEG

First: COc1cc(NC(=O)[C@H]2CC[C@@H](n3c(=O)[nH]c4c(C(N)=O)cccc43)CC2)ccc1C [Example 291, 2-Oxo-1-[cis-4-[(3-methoxy-4-methylphenyl)carbamoyl]cyclohexyl]-2,3-dihydro-1H-1,3-benzodiazole-4-carboxamide]
Second: COc1cc(NC(=O)[C@H]2CC[C@@H](n3c(=O)[nH]c4c(C(=O)NCCN)cccc43)CC2)ccc1C [Example 247, N-(2-Aminoethyl)-2-oxo-1-[cis-4-[(3-methoxy-4-methylphenyl)carbamoyl]cyclohexyl]-2,3-dihydro-1H-1,3-benzodiazole-4-carboxamide]
The IC50 of the first is 15-fold higher: 9.53 nM for the first, 0.62 nM for the second.

`COc1ccc(NC(=O)N2CCC(n3c(=O)[nH]c4cc(F)ccc43)CC2)cc1Cl` [Example 173, N-(3-Chloro-4-methoxyphenyl)-4-(5-fluoro-2-oxo-2,3-dihydro-1H-1,3-benzodiazol-1-yl)piperidine-1-carboxamide] and `COc1ccc(NC(=O)N2CCC(n3c(=O)[nH]c4c(N)cccc43)CC2)cc1Cl` [Example 174, 4-(4-Amino-2-oxo-2,3-dihydro-1H-1,3-benzodiazol-1-yl)-N-(3-chloro-4-methoxyphenyl)piperidine-1-carboxamide] are within 1.5-fold of each other in IC50: 2420 nM for the first, 2540 nM for the second.

First: O=c1[nH]c2c(Br)cccc2n1[C@H]1CC[C@@H](C(=O)Nc2cccc(Cl)c2)CC1 [Example 138, (Cis)-4-(4-bromo-2-oxo-2,3-dihydro-1H-1,3-benzodiazol-1-yl)-N-(3-chlorophenyl)cyclohexane-1-carboxamide]
Second: O=c1[nH]c2c(Br)cccc2n1[C@H]1CC[C@@H](C(=O)Nc2cccc(O)c2)CC1 [Example 196, Cis-4-(4-bromo-2-oxo-2,3-dihydro-1H-1,3-benzodiazol-1-yl)-N-(3-hydroxyphenyl)cyclohexane-1-carboxamide]
The IC50 of the first is 3.1-fold higher: 2010 nM for the first, 647 nM for the second.

`COc1cc(NC(=O)N2CCC(n3c(=O)[nH]c4c(C)cccc43)CC2)ccc1C` [Example 115, N-(3-methoxy-4-methylphenyl)-4-(4-methyl-2-oxo-2,3-dihydro-1H-1,3-benzodiazol-1-yl)piperidine-1-carboxamide] and `COc1cc(NC(=O)N2CCC(n3c(=O)[nH]c4c(OC)cccc43)CC2)ccc1C` [Example 116, 4-(4-Methoxy-2-oxo-2,3-dihydro-1H-1,3-benzodiazol-1-yl)-N-(3-methoxy-4-methylphenyl)piperidine-1-carboxamide] are within 1.5-fold of each other in IC50: 1430 nM for the first, 2060 nM for the second.

`O=c1[nH]c2c(Br)cccc2n1[C@H]1CC[C@@H](C(=O)Nc2cccc3cn[nH]c23)CC1` [Example 186, Cis-4-(4-bromo-2-oxo-2,3-dihydro-1H-1,3-benzodiazol-1-yl)-N-(1H-indazol-7-yl)cyclohexane-1-carboxamide] and `Cc1ccc(NC(=O)[C@H]2CC[C@@H](n3c(=O)[nH]c4c(Br)cccc43)CC2)nc1` [Example 189, Cis-4-(4-bromo-2-oxo-2,3-dihydro-1H-1,3-benzodiazol-1-yl)-N-(5-methylpyridin-2-yl)cyclohexane-1-carboxamide] are within 1.5-fold of each other in IC50: 2030 nM for the first, 1760 nM for the second.

Going from `COc1cc(NC(=O)[C@H]2CC[C@@H](n3c(=O)[nH]c4c(N5CCC(NC(=O)C(C)(C)O)C5)cccc43)CC2)ccc1C` (stereo partly drawn) [Example 317, Cis-4-{4-[3-(2-hydroxy-2-methylpropanamido)pyrrolidin-1-yl]-2-oxo-2,3-dihydro-1H-1,3-benzodiazol-1-yl}-N-(3-methoxy-4-methylphenyl)cyclohexane-1-carboxamide] to `COc1cc(NC(=O)[C@H]2CC[C@@H](n3c(=O)[nH]c4c(C(=O)N5CCNCC5)cccc43)CC2)ccc1C` [Example 261, Cis-N-(3-methoxy-4-methylphenyl)-4-[2-oxo-4-(piperazine-1-carbonyl)-2,3-dihydro-1H-1,3-benzodiazol-1-yl]cyclohexane-1-carboxamide], the IC50 rises from 39.1 nM to 68.3 nM (1.7-fold).

Compared with `O=C(NCC(O)CO)c1cnn(-c2cccc3c2[nH]c(=O)n3C2CCN(C(=O)Nc3ccc(I)cc3)CC2)c1` (stereo not drawn) [Example 90, 4-(4-{4-[(2,3-Dihydroxypropyl)carbamoyl]-1H-pyrazol-1-yl}-2-oxo-2,3-dihydro-1H-1,3-benzodiazol-1-yl)-N-(4-iodophenyl)piperidine-1-carboxamide], `CCN(CC)C(=O)c1cnn(-c2cccc3c2[nH]c(=O)n3C2CCN(C(=O)Nc3ccc(I)cc3)CC2)c1` [Example 88, 4-{4-[4-(Diethylcarbamoyl)-1H-pyrazol-1-yl]-2-oxo-2,3-dihydro-1H-1,3-benzodiazol-1-yl}-N-(4-iodophenyl)piperidine-1-carboxamide] is 8.1-fold higher in IC50: 218 nM for the first, 1760 nM for the second.

First: COc1cc(NC(=O)[C@H]2CC[C@@H](n3c(=O)[nH]c4c(C(=O)NCC5CCCN5)cccc43)CC2)ccc1C (stereo partly drawn) [Example 254, 2-Oxo-N-[(pyrrolidin-2-yl)methyl]-1-[cis-4-[(3-methoxy-4-methylphenyl)carbamoyl]cyclohexyl]-2,3-dihydro-1H-1,3-benzodiazole-4-carboxamide]
Second: COc1cc(NC(=O)[C@H]2CC[C@@H](n3c(=O)[nH]c4c(NC(=O)c5cn(C)cn5)cccc43)CC2)ccc1C [Example 319, 1-Methyl-N-{2-oxo-1-[cis-4-[(3-methoxy-4-methylphenyl)carbamoyl]cyclohexyl]-2,3-dihydro-1H-1,3-benzodiazol-4-yl}-1H-imidazole-4-carboxamide]
The IC50 of the first is 97-fold lower: 0.21 nM for the first, 20.3 nM for the second. The first is the more potent here.

First: COc1cc(NC(=O)[C@H]2CC[C@@H](n3c(=O)[nH]c4c(Nc5ncccn5)cccc43)CC2)ccc1C [Example 279, Cis-N-(3-methoxy-4-methylphenyl)-4-{2-oxo-4-[(pyrimidin-2-yl)amino]-2,3-dihydro-1H-1,3-benzodiazol-1-yl}cyclohexane-1-carboxamide]
Second: COc1cc(NC(=O)[C@H]2CC[C@@H](n3c(=O)[nH]c4c(NC(=O)c5ccnn5C)cccc43)CC2)ccc1C [Example 321, 1-Methyl-N-{2-oxo-1-[cis-4-[(3-methoxy-4-methylphenyl)carbamoyl]cyclohexyl]-2,3-dihydro-1H-1,3-benzodiazol-4-yl}-1H-pyrazole-5-carboxamide]
The IC50 of the first is 13-fold higher: 74.5 nM for the first, 5.75 nM for the second.

`COc1ccc(NC(=O)N2CCC(n3c(=O)[nH]c4c(-c5cccnc5)cccc43)CC2)cc1Cl` [Example 98, N-(3-chloro-4-methoxyphenyl)-4-[2-oxo-4-(pyridin-3-yl)-2,3-dihydro-1H-1,3-benzodiazol-1-yl]piperidine-1-carboxamide] and `COc1cc(NC(=O)N2CCC(n3c(=O)[nH]c4c(-c5cccnc5)cccc43)CC2)ccc1Cl` [Example 102, N-(4-chloro-3-methoxyphenyl)-4-[2-oxo-4-(pyridin-3-yl)-2,3-dihydro-1H-1,3-benzodiazol-1-yl]piperidine-1-carboxamide] are within 1.5-fold of each other in IC50: 2620 nM for the first, 2770 nM for the second.

First: COc1ccc(NC(=O)[C@H]2CC[C@@H](n3c(=O)[nH]c4c(Br)cccc43)CC2)cc1C#N [Example 161, (Cis)-4-(4-bromo-2-oxo-2,3-dihydro-1H-1,3-benzodiazol-1-yl)-N-(3-cyano-4-methoxyphenyl)cyclohexane-1-carboxamide]
Second: CN(C)c1cccc(NC(=O)[C@H]2CC[C@@H](n3c(=O)[nH]c4c(Br)cccc43)CC2)c1 [Example 198, Cis-4-(4-bromo-2-oxo-2,3-dihydro-1H-1,3-benzodiazol-1-yl)-N-[3-(dimethylamino)phenyl]cyclohexane-1-carboxamide]
The IC50 of the first is 31-fold lower: 175 nM for the first, 5370 nM for the second. The first is the more potent here.

`CCOc1cccc2c1[nH]c(=O)n2C1CCN(C(=O)Nc2ccc(I)cc2)CC1` [Example 18, 4-(4-Ethoxy-2-oxo-2,3-dihydro-1H-1,3-benzodiazol-1-yl)-N-(4-iodophenyl)piperidine-1-carboxamide] and `COc1ccc(NC(=O)N2CCC(n3c(=O)[nH]c4c(SC)cccc43)CC2)cc1Cl` [Example 176, N-(3-Chloro-4-methoxyphenyl)-4-[4-(methylsulfanyl)-2-oxo-2,3-dihydro-1H-1,3-benzodiazol-1-yl]piperidine-1-carboxamide] are within 1.5-fold of each other in IC50: 1390 nM for the first, 1080 nM for the second.

`O=C(O)c1ccc(-c2cccc3c2[nH]c(=O)n3C2CCN(C(=O)Nc3ccc(Cl)c(Cl)c3)CC2)cc1` [Example 35, 4-(1-{1-[(3,4-Dichlorophenyl)carbamoyl]piperidin-4-yl}-2-oxo-2,3-dihydro-1H-1,3-benzodiazol-4-yl)benzoic acid] and `O=C(Nc1ccc(I)c(Cl)c1)N1CCC(n2c(=O)[nH]c3cc(Cl)ccc32)CC1` [Example 17, 4-(5-Chloro-2-oxo-2,3-dihydro-1H-1,3-benzodiazol-1-yl)-N-(3-chloro-4-iodophenyl)piperidine-1-carboxamide] are within 1.5-fold of each other in IC50: 1970 nM for the first, 1420 nM for the second.

`COc1ncc(NC(=O)[C@H]2CC[C@@H](n3c(=O)[nH]c4ncccc43)CC2)cc1C` [Example 235, Cis-N-(6-methoxy-5-methylpyridin-3-yl)-4-{2-oxo-1H,2H,3H-imidazo[4,5-b]pyridin-1-yl}cyclohexane-1-carboxamide] and `Cc1cc(N)c(NC(=O)[C@H]2CC[C@@H](n3c(=O)[nH]c4c(Br)cccc43)CC2)cc1C` [Example 223, Cis-N-(2-amino-4,5-dimethylphenyl)-4-(4-bromo-2-oxo-2,3-dihydro-1H-1,3-benzodiazol-1-yl)cyclohexane-1-carboxamide] are within 1.5-fold of each other in IC50: 1450 nM for the first, 1670 nM for the second.

Compared with `O=c1[nH]c2c(Br)cccc2n1[C@H]1CC[C@@H](C(=O)Nc2cccc(C(F)(F)F)c2)CC1` [Example 141, (Cis)-4-(4-bromo-2-oxo-2,3-dihydro-1H-1,3-benzodiazol-1-yl)-N-[3-(trifluoromethyl)phenyl]cyclohexane-1-carboxamide], `COc1cc(NC(=O)[C@H]2CC[C@@H](n3c(=O)[nH]c4c(NC(=O)c5coc(N)n5)cccc43)CC2)ccc1C` [Example 320, 2-Amino-N-{2-oxo-1-[cis-4-[(3-methoxy-4-methylphenyl)carbamoyl]cyclohexyl]-2,3-dihydro-1H-1,3-benzodiazol-4-yl}-1,3-oxazole-4-carboxamide] is 250-fold lower in IC50: 5480 nM for the first, 22 nM for the second.

Reference: US11970474B2, “Substituted benzodiazoles and use thereof in therapy” (THOMAS HELLEDAYS STIFTELSE FÖR MEDICINSK FORSKNING, priority 2018, dated 2024)
